Data set [1] can be described thus: Quantitation of the compound in amniotic fluid by high performance liquid chromatography (Example 5). The data set is classed as in vivo, human. Here is the method:
(§1) Standard solution of 2-amino-3-[2-(α-mannopyranosyl)indole-3-yl]propionic acid obtained in Example 1 above was prepared. Next, 350 μl of the standard solution was added to 500 μl of 0.1N hydrochloric acid containing 1% vitamin C, mixed with 50 μl of 40 μM N-methyl serotonin as an internal standard then 100 μl of 60% perchloric acid, and centrifuged at 3000 rpm at 4° C. The supernatant was filtered through a 0.22 μm filter to obtain a filtrate.
(§2) The filtrate was subjected to high performance liquid chromatography under the following conditions:
Amniotic fluids from pregnant healthy persons and pregnant patients with uremic syndrome staying in hospital were quantitated for the compound of the present invention. Amniotic fluids were collected from 21 healthy persons (21-41 weeks old) and 9 pregnant patients with uremic syndrome (24-49 weeks old), and assayed for the compound of the present invention. The quantitation was performed in the same manner as that of Example 2 except that amniotic fluids were used instead of the standard solution. The results are shown in FIG. 4 in which Δ and ● show the healthy persons and the pregnant patients with uremic syndrome, respectively. As shown in this figure, 353.0 ng/ml (SD 120.1) was obtained for the healthy persons while […] for the pregnant patients with uremic syndrome.

A short description of data set [2]: Quantitation of the compound in cerebrospinal fluid by high performance liquid chromatography (Example 4). The data set is classed as in vivo, human. As to the method:
as §1, §2
Sera and cerebrospinal fluids from healthy persons and patients with central nervous disease were quantitated for the compound of the present invention. Both sera and cerebrospinal fluids were collected from 22 healthy persons, one patient with spinocerebellar ataxia and one patient with metastatic brain tumor, and quantitated for the compound of the present invention in the sera and the cerebrospinal fluids in the same manner as that of Example 2 except that sera or cerebrospinal fluids were used instead of the standard solution. […] The result of quantitation of the compound in cerebrospinal fluids is shown in FIG. 3 in which ●, □ and Δ show the healthy persons, the patient with spinocerebellar ataxia, and the patient with metastatic brain tumor, respectively. As shown in this figure, the level of the compound in cerebrospinal fluids from healthy persons was determined to be 130.4 ng/ml (SD 29.1). The level of the compound in cerebrospinal fluid from the patient with spinocerebellar ataxia was determined to be 399.4 ng/ml. The level of the compound in cerebrospinal fluid from the patient with metastatic brain tumor was determined to be 822.6 ng/ml.

In the case of `NC(Cc1c([C@H]2O[C@H](CO)[C@@H](O)[C@H](O)[C@@H]2O)[nH]c2ccccc12)C(=O)O` (stereo partly drawn) [the present compound, 2-amino-3-[2-(α-mannopyranosyl)indole-3-yl]propionic acid], the “range of levels in amniotic fluids from 99% of subjects” value was 113 to 593 ng/mL in data set [1] (healthy persons (n=21)) and 675 to 2147 ng/mL in data set [1] (pregnant patients with uremic syndrome (n=9)). The “level in amniotic fluids” value in data set [1] (pregnant healthy persons (n=21), SD 120.1) came to 353.0 ng/mL; in data set [1] (pregnant patients with uremic syndrome (n=9), SD 367.9), 410.7 ng/mL. The “range of levels in cerebrospinal fluids from 99% of subjects” value in data set [2] (healthy persons (n=22)) lay in the range of 72 to 188 ng/mL. The “level in cerebrospinal fluids” value in data set [2] (healthy persons (n=22), SD 29.1) was determined as 130.4 ng/mL. Besides, the figures for the “level in cerebrospinal fluid” value in data set [2] (one patient with metastatic brain tumor) and in data set [2] (one patient with spinocerebellar ataxia) were 822.6 ng/mL and 399.4 ng/mL, respectively. The “levels in cerebrospinal fluids” value in data set [2] (patients with spinocerebellar ataxia or metastatic brain tumor) was no less than 400 ng/mL.
